Data on four compounds can be found in paper PMC5626627 (The FEBS journal, 2017).

Test [1] has as its target T1, corn root FNR (ferredoxin:NADP+ reductase) (Zea mays, UniProt B4G043).
T1 sequence (B4G043 66-381): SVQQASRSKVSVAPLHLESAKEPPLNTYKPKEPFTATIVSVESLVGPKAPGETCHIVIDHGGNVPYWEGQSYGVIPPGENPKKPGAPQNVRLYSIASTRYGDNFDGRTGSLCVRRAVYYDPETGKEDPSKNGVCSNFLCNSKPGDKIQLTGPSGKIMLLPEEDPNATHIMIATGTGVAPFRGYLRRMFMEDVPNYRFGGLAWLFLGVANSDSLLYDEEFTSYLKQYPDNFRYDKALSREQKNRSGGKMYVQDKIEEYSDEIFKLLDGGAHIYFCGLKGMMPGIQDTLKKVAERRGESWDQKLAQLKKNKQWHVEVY
The test can be described thus: anaerobic spectrophotometric titration, flavin charge-transfer bands. The test is classed as biochemical. The conditions noted are these: 50 mM HEPES-NaOH, pH 7.0, 15 °C.

For test [2], the target named is T2, corn root FNR (ferredoxin:NADP+ reductase) (Zea mays, UniProt B4G043, Y381S).
T2 sequence (B4G043 66-381 Y381S): T1 sequence (B4G043 66-381) with Y316S
The test can be described thus: anaerobic titration, visible absorption of FAD. The test is classed as binding.

Test [3] has as its target T2, corn root FNR (ferredoxin:NADP+ reductase). The test is described as follows: titration, visible absorption of FAD. It is filed as binding.

The structures appear in SMILES notation. Changes are numbered by the printed parent chain.

Regarding `NC(=O)C1=CN([C@@H]2O[C@H](COP(=O)(O)OP(=O)(O)OC[C@H]3O[C@@H](n4cnc5c(N)ncnc54)[C@H](OP(=O)(O)O)[C@@H]3O)[C@@H](O)[C@H]2O)C=CC1` [NADPH], in test [1], the “anaerobic spectrophotometric titration, flavin charge-transfer bands” value is on record as “for wild-type the CTC-1 absorption band dominates”. Usually Kd stands for the free concentration of one partner at which half of the binding sites on the other are occupied at equilibrium, for simple one-to-one binding. `NC(=O)c1ccc[n+]([C@@H]2O[C@H](COP(=O)(O)OP(=O)(O)OC[C@H]3O[C@@H](n4cnc5c(N)ncnc54)[C@H](OP(=O)(O)O)[C@@H]3O)[C@@H](O)[C@H]2O)c1` [NADP^+] came in with a Kd in test [2] of no more than 20 nM.

On to `NC(=O)c1ccc[n+]([C@@H]2O[C@H](COP(=O)(O)OP(=O)(O)OC[C@H]3O[C@@H](n4cnc5c(N)ncnc54)[C@H](O)[C@@H]3O)[C@@H](O)[C@H]2O)c1` [NAD^+], for which binding in test [3] was characterised by a dissociation constant (Kd) of 0.145 ± 0.005 mM. The same measure, in the same setting: in the case of `NC(=O)c1cccnc1` [nicotinamide] it was 3 ± 0.1 mM.
